Data taken from patent US20030203819A1, “Synergistically acting herbicidal mixtures” (priority 1998, published 2003).
Where two headings read alike, the source gives them in different places.

Tests used:
Format in all cases: in vivo
[1] = tested on: Triticum aestivum; assay: Phytotoxicity to crop plant in the greenhouse (post-emergence treatment)
From the text: (§1) The mixtures according to the invention were applied pre- or post-emergence (foliar treatment). The herbicidal compounds of component B were applied in the formulation in which they are present as commercially available product.
(§2) Some of the experiments were greenhouse experiments and some were field trials on mini plots (on a site with sandy loam (pH 6.2 to 7.0) or sandy clay (pH 5.0 to 6.7) as the soil).
(§3) The herbicidally active compounds of components A) and B) were applied in succession or jointly, in the latter case in some cases as a tank mix and in some cases as a readymix, in the form of emulsions, aqueous solutions or suspensions, the vehicle being water ([…]). In the case of the field trials, application was effected with the aid of a mobile plot sprayer.
(§4) The test period extended over 3 to 8 weeks, and the stands were also observed at later points in time.
(§5) Damage by the herbicidal compositions was evaluated with reference to a scale of 0% to 100% in comparison with untreated control plots. 0 means no damage and 100 means complete destruction of the plants.
(§6) In these examples, the value E at which only an additive effect of the individual active ingredients is to be expected was calculated by the method of S. R. Colby (Calculating synergistic and antagonistic responses of herbicide combinations, Weeds 15, 20 pp (1967).

[2] = tested on: Setaria faberi; assay: Herbicidal action in the field (post-emergence treatment)
From the text: as §1, §2
(§7) The harmful plants differed with regard to size and developmental state; on average, they were 5 to 20 cm long, depending on the growth habit.
as §3, §4, §5, §6

[3] = tested on: Chenopodium album; assay: as above; settings: Ia.3 50 g/ha a.s.
From the text: as §1, §2, §7, §3, §4, §5, §6

[4] = tested on: Anthemis mixta; assay: as above; settings: Ia.3 75 g/ha a.s.
From the text: as §1, §2, §7, §3, §4, §5, §6

[5] = tested on: Echinochloa crus-galli; assay: as above; settings: Ia.3 75 g/ha a.s.
From the text: as §1, §2, §7, §3, §4, §5, §6

[6] = tested on: Geranium carolinianum; assay: as above; settings: Ia.3 150 g/ha a.s.
From the text: as §1, §2, §7, §3, §4, §5, §6

[7] = tested on: Sorghum bicolor; assay: as above
From the text: as §1, §2, §7, §3, §4, §5, §6

[8] = tested on: Brachiaria plantaginea; assay: as above; settings: Ia.3 75 g/ha a.s.
From the text: as §1, §2, §7, §3, §4, §5, §6

[9] = tested on: Digitaria adscendens; assay: as above
From the text: as §1, §2, §7, §3, §4, §5, §6

[10] = tested on: Setaria viridis; assay: as above; settings: Ia.3 100 g/ha a.s.
From the text: as §1, §2, §7, §3, §4, §5, §6

[11] = tested on: Cyperus species; assay: as above
From the text: as §1, §2, §7, §3, §4, §5, §6

[12] = tested on: Richardia brasiliensis; assay: as above; settings: Ia.3 75 g/ha a.s.
From the text: as §1, §2, §7, §3, §4, §5, §6

[13] = tested on: Lolium perenne; assay: as above; settings: Ia.3 75 g/ha a.s.
From the text: as §1, §2, §7, §3, §4, §5, §6

[14] = tested on: Digitaria sanguinalis; assay: as above; settings: Ia.3 50 g/ha a.s.
From the text: as §1, §2, §7, §3, §4, §5, §6

[15] = tested on: Stellaria media; assay: as above
From the text: as §1, §2, §7, §3, §4, §5, §6

[16] = tested on: Abutilon theophrasti; assay: as above
From the text: as §1, §2, §7, §3, §4, §5, §6

[17] = tested on: Galium aparine; assay: as above
From the text: as §1, §2, §7, §3, §4, §5, §6

[18] = tested on: Phalaris spec.; assay: as above; settings: Ia.3 75 g/ha a.s.
From the text: as §1, §2, §7, §3, §4, §5, §6

[19] = tested on: Ipomoea purpurea var. diversifolia; assay: as above
From the text: as §1, §2, §7, §3, §4, §5, §6

[20] = tested on: Bidens pilosa; assay: as above
From the text: as §1, §2, §7, §3, §4, §5, §6

[21] = tested on: Ipomoea acuminata; assay: as above
From the text: as §1, §2, §7, §3, §4, §5, §6

[22] = tested on: Alopecurus myosuroides; assay: as above
From the text: as §1, §2, §7, §3, §4, §5, §6

[23] = tested on: Veronica ssp.; assay: Herbicidal action in the greenhouse (post-emergence treatment)
From the text: as §1, §2, §7, §3, §4, §5, §6

[24] = tested on: Setaria viridis; assay: as above; settings: Ia.3 15.6 g/ha a.s.
From the text: as §1, §2, §7, §3, §4, §5, §6

[25] = tested on: Amaranthus retroflexus; assay: as above; settings: Amaranthus retroflexus, post-emergence
From the text: as §1, §2, §7, §3, §4, §5, §6

[26] = tested on: Abutilon theophrasti; assay: as above
From the text: as §1, §2, §7, §3, §4, §5, §6

[27] = tested on: Ipomoea ssp.; assay: as above
From the text: as §1, §2, §7, §3, §4, §5, §6

[28] = tested on: Cyperus iria; assay: Herbicidal action in the greenhouse (pre-emergence treatment); settings: Ia.3 31.2 g/ha a.s.
From the text: as §1, §2, §7, §3, §4, §5, §6

[29] = tested on: Echinochloa crus-galli; assay: as above; settings: Ia.3 62.5 g/ha a.s.
From the text: as §1, §2, §7, §3, §4, §5, §6

[30] = tested on: Setaria viridis; assay: as above; settings: Ia.3 15.6 g/ha a.s.
From the text: as §1, §2, §7, §3, §4, §5, §6

[31] = tested on: Amaranthus retroflexus; assay: as above; settings: Ia.3 31.2 g/ha a.s.
From the text: as §1, §2, §7, §3, §4, §5, §6

[32] = tested on: Digitaria sanguinalis; assay: as above
From the text: as §1, §2, §7, §3, §4, §5, §6

[33] = tested on: Sorghum halepense; assay: Herbicidal action in the field (post-emergence treatment); settings: for Damage (%): Sorghum halepense, field, post-emergence, Ia.33 75 g/ha a.s.
From the text: as §1, §2, §7, §3, §4, §5, §6

[34] = tested on: Ipomoea lacunosa; assay: as above; settings: Ia.33 75 g/ha a.s.
From the text: as §1, §2, §7, §3, §4, §5, §6

[35] = tested on: Panicum miliaceum; assay: as above; settings: Ia.33 50 g/ha a.s.
From the text: as §1, §2, §7, §3, §4, §5, §6

[36] = tested on: Setaria faberi; assay: Herbicidal action in the greenhouse (post-emergence treatment); settings: Ia.33 7.8 g/ha a.s.
From the text: as §1, §2, §7, §3, §4, §5, §6

[37] = tested on: Echinochloa crus-galli; assay: as above
From the text: as §1, §2, §7, §3, §4, §5, §6

[38] = tested on: Alopecurus myosuroides; assay: as above
From the text: as §1, §2, §7, §3, §4, §5, §6

[39] = tested on: Zea mays; assay: Phytotoxicity to crop plant in the greenhouse (post-emergence treatment); settings: Table 84, Ia.33 62.5 g/ha a.s.
From the text: as §1, §2, §3, §4, §5, §6

COCC(C)N(C(=O)CCl)c1c(C)csc1C (stereo not shown) [Dimethenamide]
Phytotoxicity (%) ([1]; Table 83, Dimethenamide 500 g/ha a.s.): 0%

Cn1ncc(C(=O)c2ccc(S(C)(=O)=O)c(C3=NOCC3)c2Cl)c1O [Ia.3, 4-[2-chloro-3-(4,5-dihydroisoxazol-3-yl)-4-methylsulfonylbenzoyl]-1-methyl-5-hydroxy-1H-pyrazole]
Damage ([2]; Ia.3 75 g/ha a.s. (Table 59)): 99%
Damage ([2]; Ia.3 75 g/ha a.s. (Table 67)): 95%
Damage [3]: 92%
Damage [4]: 68%
Damage [5]: 98%
Damage [6]: 30%
Damage ([7]; Ia.3 (title: Ia.33) 75 g/ha a.s. (Table 68)): 78%
Damage [8]: 96%
Damage (%) ([8]; Table 80, Brachiaria plantaginea, field, post-emergence): 95%
Damage ([9]; Ia.3 75 g/ha a.s. (Table 33)): 90%
Damage ([9]; Ia.3 75 g/ha a.s. (Table 37)): 90%
Damage [10]: 75%
Damage ([11]; Ia.3 75 g/ha a.s. (Table 70)): 5%
Damage ([11]; Ia.3 75 g/ha a.s. (Table 71)): 0%
Damage [12]: 70%
Damage [13]: 10%
Damage [14]: 57%
Damage ([15]; Ia.3 75 g/ha a.s. (Table 14)): 91%
Damage ([15]; Ia.3 75 g/ha a.s. (Table 63)): 91%
Damage ([16]; Ia.3 50 g/ha a.s. (Table 5)): 85%
Damage ([16]; Ia.3 75 g/ha a.s. (Table 66)): 85%
Damage ([17]; Ia.3 75 g/ha a.s. (Table 9)): 63%
Damage ([17]; Ia.3 75 g/ha a.s. (Table 54)): 60%
Damage ([17]; Ia.3 75 g/ha a.s. (Table 64)): 60%
Damage [18]: 20%
Damage ([19]; Ia.3 75 g/ha a.s. (Table 16)): 93%
Damage ([19]; Ia.3 75 g/ha a.s. (Table 65)): 94%
Damage ([20]; Ia.3 75 g/ha a.s. (Table 13)): 30%
Damage ([20]; Ia.3 75 g/ha a.s. (Table 58)): 25%
Damage ([20]; Ia.3 75 g/ha a.s. (Table 69)): 25%
Damage ([21]; Ia.3 75 g/ha a.s. (Table 15)): 25%
Damage ([21]; Ia.3 75 g/ha a.s. (Table 29)): 25%
Damage ([21]; Ia.3 75 g/ha a.s. (Table 35)): 25%
Damage ([21]; Ia.3 75 g/ha a.s. (Table 76)): 23%
Damage ([22]; Ia.3 7.5 g/ha a.s. (Table 7)): 10%
Damage ([22]; Ia.3 75 g/ha a.s. (Table 8)): 10%
Damage ([23]; Ia.3 31.2 g/ha a.s.): 80%
Damage [24]: 80%
pest or weed control at 15.6 g/ha ([25]; read-out: Damage, Ia.3 15.6 g/ha a.s. (Table 10)): 80%
pest or weed control at 15.6 g/ha ([25]; read-out: Damage, Ia.3 15.6 g/ha a.s. (Table 25)): 55%
Damage ([26]; Ia.3 15.6 g/ha a.s.): 70%
Damage ([27]; Ia.3 31.2 g/ha a.s. (Table 27)): 75%
Damage ([27]; Ia.3 31.2 g/ha a.s. (Table 74)): 75%
Damage [28]: 50%
Damage [29]: 60%
Damage [30]: 20%
Damage [31]: 40%
Damage ([32]; Ia.3 62.5 g/ha a.s. (Table 40)): 60%
Damage ([32]; Ia.3 62.5 g/ha a.s. (Table 47)): 60%

Cc1c(C(=O)c2cnn(C)c2O)ccc(S(C)(=O)=O)c1C1=NOCC1 [Ia.33, 4-[2-methyl-3-(4,5-dihydroisoxazol-3-yl)-4-methylsulfonylbenzoyl]-1-methyl-5-hydroxy-1H-pyrazole]
Damage ([2]; Ia.33 75 g/ha a.s.): 65%
Damage (%) ([2]; Table 82, Setaria faberi, field, post-emergence, Ia.33 75 g/ha a.s.): 65%
Damage ([33]; Ia.33 75 g/ha a.s. (Table 32)): 78%
Damage ([33]; Ia.33 75 g/ha a.s. (Table 42)): 78%
Damage (%) ([33]; Table 78): 78%
Damage (%) ([33]; Table 79): 78%
Damage ([7]; Ia.33 75 g/ha a.s. (Table 73)): 78%
Damage [34]: 69%
Damage (%) ([34]; Table 81, Ipomoea lacunosa, field, post-emergence): 69%
Damage [35]: 87%
Damage ([17]; Ia.33 1.9 g/ha a.s.): 20%
Damage [36]: 90%
Damage ([23]; Ia.33 15.6 g/ha a.s.): 60%
Damage ([23]; Ia.33 62.5 g/ha a.s. (Table 18)): 20%
Damage ([23]; Ia.33 62.5 g/ha a.s. (Table 51)): 80%
Damage ([37]; Ia.33 1.9 g/ha a.s.): 55%
Damage ([37]; Ia.33 15.6 g/ha a.s.): 90%
pest or weed control at 1.9 g/ha ([25]; read-out: Damage, Ia.33 1.9 g/ha a.s.): 30%
pest or weed control at 7.8 g/ha ([25]; read-out: Damage, Ia.33 7.8 g/ha a.s.): 70%
Damage ([26]; Ia.33 7.8 g/ha a.s.): 90%
Damage ([38]; Ia.33 15.6 g/ha a.s.): 40%
Damage ([38]; Ia.33 62.5 g/ha a.s. (Table 19)): 40%
Damage ([38]; Ia.33 62.5 g/ha a.s. (Table 62)): 40%
Damage ([27]; Ia.33 3.9 g/ha a.s.): 50%
Damage ([27]; Ia.33 62.5 g/ha a.s.): 80%
Phytotoxicity (%) [39]: 0%

Cc1cc(-c2c(S(C)(=O)=O)ccc(C(=O)c3cnn(C)c3O)c2Cl)on1 [Ia.52, 4-[2-chloro-3-(3-methyl-isoxazol-5-yl)-4-methylsulfonylbenzoyl]-1-methyl-5-hydroxy-1H-pyrazole]
Damage ([23]; Ia.52 15.6 g/ha a.s.): 40%
pest or weed control at 62.5 g/ha ([25]; read-out: Damage, Ia.52 62.5 g/ha a.s.): 75%
Phytotoxicity (%) ([1]; Table 83, Ia.52 62.5 g/ha a.s.): 0%
